# Measurements: patent publication US20190225651A1, “COMPOUNDS FOR INDUCING TISSUE FORMATION AND USES THEREOF” (HISTIDE AG, priority 2015, published 2019)
# Ends that are not written are not given here.
# Tests used:
# [1] = Stability of non-covalent peptide coating on apatite ceramics (FITC fluorescence); format: physicochemical; details: peptide bound to FITC, coated on apatite ceramics; 3, 7 or 10 days
# Procedure: (§1) Non-covalent modifications of the materials were performed in Air Atmosphere at room temperature. The non-covalent coating strategy consisted in using a mixture of inducing peptide (SEQ ID NO: 9; concentration of 1×10^−3M) with an apatite ceramics implant or a mixture of inducing peptide (SEQ ID NO: 10; concentration of 1×10^−3M) with a type-I collagen sponge. The non-covalently coated conventional materials were characterized by using fluorescent peptides (Here SEQ ID NO: 9 and 10 covalently bound to fluorescein isothiocyanate (FITC), FIG. 3). The results shown here in FIG. 3 were obtained from experiments performed with apatite ceramics and a type-I collagen sponge. […] Indeed, after 3, 7 or 10 days, the osteogenic peptides were still coated to the ceramics or the type-I collagen (FIG. 4). The biomaterial surface was characterized by X-ray photoelectron spectroscopy (Table 1). The X-ray photoelectron spectroscopy was performed as described in the Methods section.
# [2] = Stability of non-covalent peptide coating on type-I collagen sponge (FITC fluorescence); format: physicochemical; details: peptide bound to FITC, mixed with type-I collagen sponge; 3, 7 or 10 days
# Procedure: as §1
# [3] = system: hMSCs; assay: Chondrocyte differentiation of hMSCs (Sox9, Aggrecan); format: cell-based, human; details: 96 hours of culture
# Procedure: (§2) The cells were first fixed for 20 min with 4% paraformaldehyde/PBS at 4° C. After fixation, the cells were permeabilized in PBS containing 1% Triton X-100 for 15 min. Runx2, Osterix, Stro-1, Vinculin, Phalloidin, Osteopontin, Sox2, Sox9 antibodies were visualized by treating the cells with 1% (v/v) specific monoclonal antibodies for 1 hour at 37° C. Then the samples were incubated with Alexa Fluor® 568 or 647 (F(ab′)2 fragment of IgG(H+L)) during 30 min at room temperature. The cell nuclei were counterstained in 20 ng/mL DAPI for 10 min at room temperature.
# Total RNA was extracted by using the RNeasy Mini Kit (Qiagen) and […] RNA was used for cDNA synthesis with AMV kit (Invitrogen®) according to the manufacturer' instructions. Semi-quantitative reverse transcriptase-polymerase chain reaction (RT-PCR) was performed with Taq DNA Polymerase (Invitrogen®) in a thermocycler (Bio-Rad®). The cDNA input was normalized to […] (HPRT). The PCR products were analyzed on 2% agarose gels. For the Aggrecan gene, the PCR bands were densitometrically quantified by using the BioCapt software (Vilber). Values were normalized to HPRT, and results were reported as relative gene expression.
# hMSCs were cultured on with and without GFR-binding compounds as defined herein (SEQ ID NO: 23 and 24). […]
# [4] = system: Human umbilical-vein endothelial cells; assay: Angiogenesis, tube-like structure formation; format: cell-based; details: 18 hours of culture
# Procedure: Human umbilical-vein endothelial cells were cultured with and without GFR-binding compounds as defined herein (SEQ ID NO: 27).
# [5] = system: osteoblast progenitors; assay: Osteogenic differentiation of osteoblast progenitors on peptide-coated materials (Osteopontin staining, Runx2 Q-PCR); format: cell-based
# Procedure: as §2
# (§3) Total RNA was extracted by using the RNeasy total RNA kit (Qiagen®) according to the manufacturer's instructions. Purified total RNA was used as a template in order to make cDNA by a reverse transcription reaction (Gibco BrI®) with random primers (Invitrogen®). The cDNA was then used as a template for a real-time PCR amplification in the presence of SYBR green reagents (Bio-Rad®) by using a thermocycler (iCycler, Biorad®). Data were analyzed with the iCycler IQ™® software and compared by the ΔΔCt method. Briefly, the mean Ct value of the target gene was normalized to its averaged Ct values of the housekeeping gene (HPRT) to give a ΔCt value, which was then normalized to a control sample to obtain a ΔΔCt value. The results were obtained from two series of experiments performed in a triplicate.
# The effect of these GFR-binding compounds as defined herein (SEQ ID NO: 19 and 20) on the differentiation of osteoblast progenitors was evaluated. These osteoblast progenitors were seeded onto the apatite ceramics or on type-I collagen sponge that were both coated with osteogenic peptides. […] This was seen from Osteopentin immunofluorescence staining after cell fixation as described in the Methods section (FIG. 7).
# An increase in the Runx2 gene expression after 24 hours of culture (FIG. 8a) was observed by using Quantitative Real Time Polymerase Chain Reaction as described in the Methods section.
# [6] = system: hMSCs; assay: Alkaline phosphatase activity of hMSCs on peptide-coupled type-I collagen sponge; format: cell-based, human; details: 1 week of culture on type-I collagen sponge
# Description: We observed an increase in the ALP activity after 1 week of culture on type-I collagen sponge coupled with GFR-binding compounds as defined herein (SEQ ID NO: 19) (FIG. 8b).
# [7] = system: Human umbilical-vein endothelial cells; assay: Endothelialization, CD31 adherens junctions; format: cell-based; details: 36 hours of culture
# Procedure: Human umbilical-vein endothelial cells were cultured with and without GFR-binding compounds as defined herein (SEQ ID NO: 26). An increase in the area of the adherent junctions (CD31) was observed after 36 hours of culture with GFR-binding compounds as defined herein (FIG. 10).
# [8] = system: Human epithelial cells; assay: Scratch test, collective cell migration; format: cell-based; details: 18 hours of culture
# Procedure: Human epithelial cells were cultured with or without GFR-binding compounds as defined herein (SEQ ID NO: 28). A usual scratch test was applied (Nat Protoc 2: 329-333) on a monolayer of these epithelial cells in culture (FIG. 12a). An increase in the cell migration velocity for cells cultured with peptides was observed after 18 hours of culture. The cells migrated collectively and the communication between cells was maintained (FIG. 12b). In fact, the injury has been closed rapidly for the cells cultured with GFR-binding compounds as defined herein.
# [9] = system: Neurons; assay: Neuron growth (dendrite growth, GAP43 Q-PCR); format: cell-based
# Procedure: as §3
# Neurons were cultured with and without GFR-binding compounds as defined herein (SEQ ID NO: 38). […] To further confirm this, the expression of the Growth Associated Protein 43 (GAP43) gene was verified for neuron cells cultured with neurogenic peptides (SEQ ID NO: 38).
substance,measurement,setting,value
"SEQ ID NO: 9: inducing peptide, cyclic GFR-binding compound of the sequence listing; mixed with apatite ceramics; sequence not printed (WWFWGGGSAISTLYLIGKTPGGGGGG; also: cyclic, ring type and places not given here)",release of peptides over time,[1],no significant release of peptides was observed over time
"SEQ ID NO: 10: inducing peptide, cyclic GFR-binding compound of the sequence listing; mixed with type-I collagen sponge; sequence not printed (GTPGPGGGSAISTLYLIGKTPGGGGGG; also: cyclic, closure not given here)",release of peptides over time,[2],no significant release of peptides was observed over time
"SEQ ID NO: 24: cyclic GFR-binding compound inducing cartilage regeneration; sequence not printed (EPLPIVYYVGRTPKVGGGGGG; also: cyclic, ring type and places not given here)",expression of the Sox9 protein,[3],expression of the Sox9 protein was observed
"SEQ ID NO: 27: vascular peptide, cyclic GFR-binding compound inducing angiogenesis; sequence not printed (SNITMQIMRIKPHQGGGGGG; also: cyclic, ring type and places not given here)",formation of tube-like structures,[4],formation of tube-like structures was observed
"SEQ ID NO: 19: osteogenic cyclic GFR-binding compound of the sequence listing; sequence not printed (WWFWGGGSAISTLYLDEYDKGGGGGG; also: cyclic, closure not given here)",differentiation into mature osteoblasts,[5]; 48 hours on coated apatite ceramics or type-I collagen sponge,differentiated into mature osteoblasts
same,production of extracellular matrix proteins such as Osteopontin (OPN),[5]; versus native type-I collagen sponge or native apatite ceramics,produced extensive amounts of extracellular matrix proteins such as Osteopontin (OPN)
same,ALP activity,[6],increase
"SEQ ID NO: 26: cyclic GFR-binding compound inducing endothelialization; sequence not printed (RSVKVAKVRIKPHQGQHGGGGGG; also: cyclic, ring type and places not given here)",area of the adherent junctions (CD31),[7],increase
"SEQ ID NO: 23: cyclic GFR-binding compound inducing cartilage regeneration; sequence not printed (VGRKPELEPLPIVYYVGRKPGGGGG; also: cyclic, ring type and places not given here)",expression of the Sox9 protein,[3],expression of the Sox9 protein was observed
"SEQ ID NO: 28: cyclic GFR-binding compound for wound healing; sequence not printed (EYVRKRPVQVRKIEYVRKGGGGGG; also: cyclic, ring type and places not given here)",cell migration velocity,[8],increase
"SEQ ID NO: 38: neurogenic peptide, cyclic GFR-binding compound; sequence not printed (SPISILYIDAANNGGGGGG; also: cyclic, ring type and places not given here)",establishment of cell-cell contacts via dendrite growth,[9]; 6 hours of culture,rapid establishment of cell-cell contacts via dendrite growth
same,expression of the Growth Associated Protein 43 (GAP43) gene,"[9]; 48 hours of culture, Q-PCR",high level of expression
